Test results published in paper PMC6017115, “Inhibitory Effect of Sauchinone on UDP-Glucuronosyltransferase (UGT) 2B7 Activity” (Molecules : A Journal of Synthetic Chemistry and Natural …, 2018).

Key:
Assay type in all cases: in vitro ADME
[1] = molecular target: T1, UGT1A1 (Homo sapiens, UniProt P22309); assay: Inhibition of UGT1A1 (β-estradiol glucuronidation) in human liver microsomes; settings: substrate 10 μM β-estradiol, mean (minimum–maximum)
T1 construct: The reaction mixture containing 0.25 mg/mL protein of HLM; tissue Corning Life Sciences 452156; host or cells: pooled human liver microsomes, 50 donors
T1 sequence (P22309 26-533): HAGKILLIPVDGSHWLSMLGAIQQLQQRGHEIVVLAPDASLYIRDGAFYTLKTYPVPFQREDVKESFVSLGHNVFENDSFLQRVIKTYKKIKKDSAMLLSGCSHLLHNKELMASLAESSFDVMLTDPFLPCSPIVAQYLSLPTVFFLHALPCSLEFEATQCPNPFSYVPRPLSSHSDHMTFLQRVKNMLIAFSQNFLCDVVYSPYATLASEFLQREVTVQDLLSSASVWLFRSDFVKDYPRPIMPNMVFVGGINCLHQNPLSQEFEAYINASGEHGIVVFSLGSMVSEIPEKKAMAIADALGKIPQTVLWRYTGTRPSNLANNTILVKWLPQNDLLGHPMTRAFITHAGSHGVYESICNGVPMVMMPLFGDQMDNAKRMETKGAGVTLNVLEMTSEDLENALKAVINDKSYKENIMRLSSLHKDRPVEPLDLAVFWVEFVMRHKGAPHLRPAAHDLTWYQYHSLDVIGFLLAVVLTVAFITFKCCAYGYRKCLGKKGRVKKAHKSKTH
Description: (§1) Their IC50 values were compared to that of sauchinone. […] UGT-mediated activities in the presence of sauchinone as an inhibitor were expressed as percentages of corresponding control values (in absence of sauchinone). From percentages of control activity versus inhibitor concentrations, a sigmoid shaped curve was fitted to the data and IC50 as an enzyme inhibition parameter was calculated by fitting the Hill equation to the data using GraphPad Prism 5 (GraphPad Software Inc., San Diego, CA, USA).

[2] = system: Ugt2b7; assay: Ki for Ugt2b7 in mouse liver microsomes; settings: our unpublished data
[3] = molecular target: T2, UGT1A4 (Homo sapiens, UniProt P22310); assay: Inhibition of UGT1A4 (trifluoperazine glucuronidation) in human liver microsomes; settings: human liver microsomes
T2 construct: The reaction mixture containing 0.25 mg/mL protein of HLM; tissue Corning Life Sciences 452156; host or cells: pooled human liver microsomes, 50 donors
T2 sequence (P22310 29-534): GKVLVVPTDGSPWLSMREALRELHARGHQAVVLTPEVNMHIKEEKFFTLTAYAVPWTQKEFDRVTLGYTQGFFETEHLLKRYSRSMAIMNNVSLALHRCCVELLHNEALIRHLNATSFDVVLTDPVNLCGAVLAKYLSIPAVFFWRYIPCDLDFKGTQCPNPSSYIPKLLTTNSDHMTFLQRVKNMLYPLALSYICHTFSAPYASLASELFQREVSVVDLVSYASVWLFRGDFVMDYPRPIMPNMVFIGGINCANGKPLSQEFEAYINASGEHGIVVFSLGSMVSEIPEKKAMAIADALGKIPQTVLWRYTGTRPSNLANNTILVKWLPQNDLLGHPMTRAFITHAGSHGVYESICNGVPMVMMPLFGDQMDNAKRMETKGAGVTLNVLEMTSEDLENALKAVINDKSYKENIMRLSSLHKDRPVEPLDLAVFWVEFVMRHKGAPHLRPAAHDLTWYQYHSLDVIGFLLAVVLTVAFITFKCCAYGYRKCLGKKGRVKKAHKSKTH
Description: as §1

[4] = system: Ugt2b7; assay: Inhibition of Ugt2b7 (zidovudine) in mice liver microsomes; settings: mouse, pH 7.6, probe zidovudine (100 μM, in UGT substrate cocktail)
Description: Their IC50 values were compared to that of sauchinone. […] Mice were sacrificed and then livers were removed and rinsed with saline. After weighing the livers, they were homogenized with a four-fold volume of ice-cold homogenizing buffer (0.154 M KCl, 50 mM Tris-base, 1 mM EDTA, pH 7.4). After centrifugation for 35 min at 9000× g and 4 °C, the supernatants were centrifuged for 95 min at 100,000× g and at 4 °C. The supernatants were discarded and the pellets were homogenized again with ice-cold homogenizing buffer. These aliquots were stored at −80 °C. The subsequent process to evaluate the inhibitory effects of sauchinone on UGT activities in MLM was the same as those using HLM. UGT-mediated activities in the presence of sauchinone as an inhibitor were expressed as percentages of corresponding control values (in absence of sauchinone). From percentages of control activity versus inhibitor concentrations, a sigmoid shaped curve was fitted to the data and IC50 as an enzyme inhibition parameter was calculated by fitting the Hill equation to the data using GraphPad Prism 5 (GraphPad Software Inc., San Diego, CA, USA).

IC50 [1]: 8.83 µM
Ki [2]: 3.34 µM
inhibitory effect on UGT1A4 activity ([3]; sauchinone up to 200 μM): negligible inhibitory effect
IC50 ([3]; substrate 40 μM trifluoperazine, mean (minimum–maximum), read-out: IC50 for inhibition of UGT1A4): > 200 µM
IC50 [4]: 23 µM
Compound: C[C@@H]1[C@H]2c3cc4c(cc3O[C@@]35OCOC3=CC(=O)[C@H](C[C@H]1C)[C@@H]25)OCO4 [Sauchinone]
